This note sets out measurements from US8227511B2, “Substituted chromanol derivatives and their use” (Bayer Intellectual Property GmbH, priority 2006, dated 2012).

The IC50 is the point on the concentration scale where inhibition reaches its midpoint.

Assay [1] addresses T1, CETP (Homo sapiens, UniProt P11597).
T1 construct: CETP is obtained in partially purified form from human plasma by differential centrifugation and column chromatography and used for the test; from tissue; host or cells: human plasma
T1 sequence (P11597 18-493): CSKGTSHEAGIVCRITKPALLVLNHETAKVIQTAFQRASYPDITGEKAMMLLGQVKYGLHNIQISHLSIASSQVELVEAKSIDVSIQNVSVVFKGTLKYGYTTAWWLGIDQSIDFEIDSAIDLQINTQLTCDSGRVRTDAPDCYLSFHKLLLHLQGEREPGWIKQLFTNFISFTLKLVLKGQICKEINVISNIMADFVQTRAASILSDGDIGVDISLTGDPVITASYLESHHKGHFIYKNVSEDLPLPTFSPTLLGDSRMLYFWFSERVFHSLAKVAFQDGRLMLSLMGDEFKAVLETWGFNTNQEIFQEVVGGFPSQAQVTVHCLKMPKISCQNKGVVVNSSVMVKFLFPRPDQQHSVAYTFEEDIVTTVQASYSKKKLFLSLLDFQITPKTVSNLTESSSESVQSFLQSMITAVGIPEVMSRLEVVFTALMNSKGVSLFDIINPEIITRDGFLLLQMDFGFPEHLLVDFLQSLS
Kind of assay: CETP fluorescence test with enriched CETP. Format: biochemical. The note with it: enriched CETP fraction from human plasma; transfer of fluorescent cholesterol ester between liposomes; 37° C. for 4 h. The procedure:
(§1) CETP is obtained in partially purified form from human plasma by differential centrifugation and column chromatography and used for the test. To this end, human plasma is adjusted to a density of 1.21 g per ml using NaBr and centrifuged at 4° C. at 50 000 rpm for 18 h. The bottom fraction (d>1.21 g/ml) is applied to a Phenyl-Sepharose 26/10 HP fast flow-column (Pharmacia), washed with PBS buffer and then eluted with distilled water. 10 parts of PBS buffer and 1% (w/v) BSA are added to the eluate. The CETP-active fractions are pooled.
Measurement of the CETP-catalyzed transfer of a fluorescent cholesterol ester between liposomes [modified according to the procedure of Bisgaier et al., J. Lipid Res. 34, 1625 (1993)]:
For the production of the donor liposomes, 1 mg of cholesteryl 4,4-difluoro-5,7-dimethyl-4-bora-3a,4a-diaza-s-indacene-3-dodecanoate (cholesteryl BODIPY® FL C12, Molecular Probes) is dissolved in 2 ml of chloroform with 5.35 mg of triolein and 6.67 mg of phosphatidylcholine. The solvent is removed at medium temperature in a SpeedVac and the residue is dried under high vacuum for 1 h. The residue is then dissolved in 600 μl of dioxane with gentle warming in an ultrasonic bath and this solution is added very slowly with ultrasonication to 63 ml of 50 mM Tris/HCl, 150 mM NaCl, 2 mM EDTA buffer pH 7.3 at room temperature. The suspension is then ultrasonicated under an N2 atmosphere for 30 minutes in the Branson ultrasonic bath at about 50 watts, the temperature being kept at about 20° C.
The acceptor liposomes are obtained analogously from 86 mg of cholesteryl oleate, 20 mg of triolein and 100 mg of phosphatidylcholine dissolved in 1.2 ml of dioxane and 114 ml of the above buffer by ultrasonication at 50 watts (20° C.) for 30 minutes.
For testing, a test mix consisting of 1 part of above buffer, 1 part of donor liposomes and 2 parts of acceptor liposomes is used.
50 μl of test mix are treated with 48 μl of enriched CETP fraction (1-3 μg), obtained from human plasma by means of hydrophobic chromatography, and 2 μl of a solution of the substance to be investigated in DMSO and incubated at 37° C. for 4 h.
The change in the fluorescence at 485/535 nm is a measure of the CE transfer; the inhibition of the transfer in comparison to the control batch without substance is determined.

Assay [2] addresses T1, CETP. The assay is described as follows: CETP-SPA test. The class given is biochemical. The note with it: transfer of 3H-cholesterol ester from human HDL to biotinylated LDL; 37° C. for 18 h. The method, then:
as §1
For testing of the CETP activity, the transfer of ^3H-cholesterol ester from human HD lipoproteins to biotinylated LD lipoproteins is measured. The reaction is ended by addition of streptavidin-SPA® beads (Amersham) and the transferred radioactivity is determined directly in a liquid scintillation counter.
In the test batch, 10 μl of HDL-3H-cholesterol ester (about 50 000 cpm) are incubated at 37° C. for 18 h with 10 μl of biotin-LDL (Amersham) in 50 mM Hepes/0.15 M NaCl/0.1% bovine serum albumin (RSA)/0.05% NaN3 pH 7.4 containing 10 μl of CETP (1 mg/ml) and 3 μl of a solution of the substance to be tested (dissolved in 10% DMSO/1% RSA). 200 μl of the SPA-streptavidin bead solution (TRKQ 7005) are then added, incubated further with shaking for 1 h and then measured in a scintillation counter. Corresponding incubations with 10 μl of buffer, 10 μl of CETP at 4° C. and 10 μl of CETP at 37° C. serve as controls.
The activity transferred in the control batches with CETP at 37° C. is rated as 100% transfer. The substance concentration at which this transfer is reduced to half is specified as the IC50 value.

In assay [3] the test system is transgenic hCETP mice. The assay is described as follows: Measurement of the in vivo activity in transgenic hCETP mice. The settings on record: perorally once a day on 3 days, percentage change compared with the starting value. The method, then: To determine the oral action on lipoproteins and triglycerides, test substance is administered perorally to transgenic mice [Dinchuk et al., BBA, 1295-1301 (1995)] using a stomach tube once a day on 3 days. For this purpose, the substances are dissolved in 10% Solutol HS 15/10% ethanol/80% of a 0.9% strength sodium chloride solution; the administration volume is generally 10 ml per kg of body weight. Before the start of the experiment, blood is withdrawn from the mice retro-orbitally in order to determine cholesterol and triglycerides in the serum. The serum is obtained as described above for hamsters by incubation at room temperature for 30 min and subsequent centrifugation at 6000 g. On the day after the last administration of substance, blood is again withdrawn from the mice in order to determine lipoproteins and triglycerides. The changes in the parameters measured are expressed as the percentage change compared with the starting value.

As to `CC(C)c1cc2c(c(-c3ccc(F)cc3)c1[C@@H](F)c1ccc(C(F)(F)F)cc1)[C@@H](O)CC(C)(C)O2` [Example 7, (4S)-5-(4-Fluorophenyl)-6-{(S)-fluoro[4-(trifluoromethyl)phenyl]methyl}-7-isopropyl-2,2-dimethylchroman-4-ol], the IC50 worked out at 32 nM in assay [1] and 20 nM in assay [2]. Besides, the “% increase of HDL after 3 d (dose: 3 × 3 mg/kg)” value in assay [3] is 67%.
For `CC(C)c1cc2c(c(-c3ccc(F)cc3)c1C(=O)c1ccc(C(F)(F)F)cc1)[C@@H](O)CC1(CCC1)O2` [Example 27, [(4S)-5-(4-Fluorophenyl)-4-hydroxy-7-isopropyl-3,4-dihydrospiro[chromen-2,1′-cyclobutan]-6-yl]-[4-(trifluoromethyl)phenyl]methanone], the IC50 came out at 35 nM in assay [1] and 18 nM in assay [2].
For `CC(C)c1cc2c(c(-c3ccc(F)cc3)c1[C@@H](O)c1ccc(C(F)(F)F)cc1)[C@@H](O)CC1(CCC1)O2` [Example 28, (4S)-5-(4-Fluorophenyl)-6-{(S)-hydroxy[4-(trifluoromethyl)phenyl]methyl}-7-isopropyl-3,4-dihydrospiro[chromen-2,1′-cyclobutan]-4-ol], the 50% inhibitory concentration (IC50) was determined as 77 nM in assay [1] and 22 nM in assay [2]. Besides, the “% increase of HDL after 3 d (dose: 3 × 3 mg/kg)” value in assay [3] is 25%.
Turning to `CC(C)c1cc2c(c(-c3ccc(F)cc3)c1[C@H](F)c1ccc(C(F)(F)F)cc1)[C@@H](O)CC1(CCC1)O2` [Example 31, (4S)-5-(4-fluorophenyl)-6-{(R)-fluoro[4-(trifluoromethyl)phenyl]methyl}-7-isopropyl-3,4-dihydro-spiro[chromen-2,1′-cyclobutan]-4-ol], the IC50 in assay [1] turned out to be 53 nM; in assay [2], 20 nM.
`CC(C)c1cc2c(c(-c3ccc(F)cc3)c1C(=O)c1ccc(C(C)(C)C)cc1)[C@@H](O)CC1(CCC1)O2` [Example 33, (4-tert-Butylphenyl)[(4S)-5-(4-fluorophenyl)-4-hydroxy-7-isopropyl-3,4-dihydrospiro[chromen-2,1′-cyclobutan]-6-yl]methanone]: the figures for the IC50 in assay [1] and in assay [2] were 59 nM and 16 nM, respectively.
As for `CC(C)c1cc2c(c(-c3ccc(F)cc3)c1[C@@H](O)c1ccc(C(C)(C)C)cc1)[C@@H](O)CC1(CCC1)O2` [Example 34, (4S)-6-[(S)-(4-tert-Butylphenyl)(hydroxy)methyl]-5-(4-fluorophenyl)-7-isopropyl-3,4-dihydro-spiro[chromen-2,1′-cyclobutan]-4-ol], the figures for the IC50 in assay [1] and in assay [2] were 14 nM and 5 nM, respectively.
With `CC(C)c1cc2c(c(-c3ccc(F)cc3)c1[C@H](O)c1ccc(C(C)(C)C)cc1)[C@@H](O)CC1(CCC1)O2` [Example 35, (4S)-6-[(R)-(4-tert-butylphenyl)(hydroxy)methyl]-5-(4-fluorophenyl)-7-isopropyl-3,4-dihydro-spiro[chromen-2,1′-cyclobutan]-4-ol], the figures for the IC50 in assay [1] and in assay [2] were 800 nM and 400 nM, respectively.
With `CC(C)c1cc2c(c(-c3ccc(F)cc3)c1C(=O)c1ccc(OC(F)(F)F)cc1)[C@@H](O)CC1(CCC1)O2` [Example 37, [(4S)-5-(4-Fluorophenyl)-4-hydroxy-7-isopropyl-3,4-dihydrospiro[chromen-2,1′-cyclobutan]-6-yl]-[4-(trifluoromethoxy)phenyl]methanone], the IC50 in assay [1] turned out to be 36 nM; in assay [2] it was 30 nM.
For `CC(C)c1cc2c(c(-c3ccc(F)cc3)c1Cc1ccc(OC(F)(F)F)cc1)[C@@H](O)CC1(CCC1)O2` [Example 41, (4S)-5-(4-Fluorophenyl)-7-isopropyl-6-[4-(trifluoromethoxy)benzyl]-3,4-dihydrospiro[chromen-2,1′-cyclobutan]-4-ol], the values for the IC50 in assay [1] and in assay [2] were 19 nM and 15 nM, respectively.
The matching figures for `CC(C)c1cc2c(c(C3CCCC3)c1[C@H](F)c1ccc(C(F)(F)F)cc1)[C@@H](O)CC1(CCC1)O2` [Example 43, (4S)-5-cyclopentyl-6-{(R)-fluoro[4-(trifluoromethyl)phenyl]methyl}-7-isopropyl-3,4-dihydrospiro-[chroman-2,1′-cyclobutan]-4-ol]: 61 nM and 100 nM.
`O=C(c1ccc(C(F)(F)F)cc1)c1c(C2CCCC2)cc2c(c1-c1ccc(F)cc1)[C@@H](O)CC1(CCC1)O2` [Example 44]: the results for the IC50 in assay [1] and in assay [2] were 45 nM and 31 nM, respectively.
In the case of `O[C@@H](c1ccc(C(F)(F)F)cc1)c1c(C2CCCC2)cc2c(c1-c1ccc(F)cc1)[C@@H](O)CC1(CCC1)O2` [Example 45], the IC50 came out at 26 nM in assay [1] and 21 nM in assay [2].
Regarding `CC(C)(C)c1ccc(C(=O)c2c(C3CCCC3)cc3c(c2-c2ccc(F)cc2)[C@@H](O)CC2(CCC2)O3)cc1` [Example 47], the IC50 in assay [1] came out at 50 nM; in assay [2] it was 38 nM.
On to `CC(C)(C)c1ccc([C@H](O)c2c(C3CCCC3)cc3c(c2-c2ccc(F)cc2)[C@@H](O)CC2(CCC2)O3)cc1` [Example 48], for which the values for the IC50 in assay [1] and in assay [2] were 33 nM and 14 nM, respectively.
The matching figures for `CC(C)(C)c1ccc(Cc2c(C3CCCC3)cc3c(c2-c2ccc(F)cc2)[C@@H](O)CC2(CCC2)O3)cc1` [Example 50]: 30 nM and 15 nM.
`O=C(c1ccc(OC(F)(F)F)cc1)c1c(C2CCCC2)cc2c(c1-c1ccc(F)cc1)[C@@H](O)CC1(CCC1)O2` [Example 51]: the results for the IC50 in assay [1] and in assay [2] were 42 nM and 100 nM, respectively.
As for `O[C@@H](c1ccc(OC(F)(F)F)cc1)c1c(C2CCCC2)cc2c(c1-c1ccc(F)cc1)[C@@H](O)CC1(CCC1)O2` [Example 52], the IC50 stood at 198 nM in assay [1] and 30 nM in assay [2].
In the case of `CC(C)c1cc2c(c(-c3ccc(F)cc3)c1[C@@H](O)c1ccc(C(F)(F)F)cc1)[C@@H](O)CC1(CC1)O2` [Example 55], the IC50 came out at 27 nM in assay [1] and 4 nM in assay [2].
The matching figures for `CC(C)c1cc2c(c(-c3ccc(F)cc3)c1[C@H](F)c1ccc(C(F)(F)F)cc1)[C@@H](O)CC1(CC1)O2` [Example 58]: 300 nM and 68 nM.
